# Data published in US8637501B2, “Azinone-substituted azepino[b]indole and pyrido-pyrrolo-azepine MCH-1 antagonists, methods of making, and use thereof” (Albany Molecular Research, Inc., priority 2009, dated 2014).
# Counter-ions that a name gives are not always drawn.
# Molecular target: human MCH-1 receptor (Homo sapiens (Human), UniProt Q99705)
# Test: Binding Assay for Human Melanin-Concentrating Hormone (MCH-1) Receptor
# Settings: radioligand displacement, membranes from CHO-K1 cells expressing human MCH-1 receptor; Ki from IC50 by Cheng Prusoff equation; read-out: MCH1 Ki
# Description: Binding Assay for Human Melanin-Concentrating Hormone (MCH-1) Receptor
# Evaluation of the affinity of compounds for the human MCH-1 receptor was accomplished using 4-(3,4,5-tritritiumbenzyloxy)-1-(1-(2-(pyrrolidin-1-yl)ethyl)-1H-indazol-5-yl)pyridin-2(1H)-one and membranes prepared from stable CHO-K1 cells expressing the human MCH-1 receptor obtained from Euroscreen (Batch 1138). Cell membrane homogenates (8.92 μg protein) were incubated for 60 min at 25° C. with 1.4 nM of the [^3H]-labeled compound in the absence or presence of the test compound in 50 mM Tris-HCl buffer, pH 7.4. Nonspecific binding was determined in the presence of 50 μM 1-(5-(4-cyanophenyl)bicyclo[3.1.0]hexan-2-yl)-3-(4-fluoro-3-(trifluoromethyl)phenyl)-1-(3-(4-methylpiperazin-1-yl)propyl)urea. Following incubation, the samples were filtered rapidly under vacuum through Skatron 11731 filters, pre-soaked in 0.5% polyethylenimine, and washed with ice-cold 50 mM Tris-HCl buffer, pH 7.4, (wash setting 9,9,0) using a Skatron cell harvester. The filters were counted for radioactivity in a liquid scintillation counter (Tri-Carb 2100TR, Packard) using a scintillation cocktail (Ultima Gold MV, Perkin Elmer).
# The results are expressed as a percent inhibition of the control radioligand specific binding. The IC50 value (concentration causing a half-maximal inhibition of control specific binding) and Hill coefficient (nH) were determined by non-linear regression analysis of the competition curve using Hill equation curve fitting. The inhibition constant (Ki) was calculated from the Cheng Prusoff equation: (Ki=IC50/(1+(L/KD)), where L=concentration of radioligand in the assay, and KD=affinity of the radioligand for the receptor.
# human MCH-1 receptor, sequence (Q99705 whole entry): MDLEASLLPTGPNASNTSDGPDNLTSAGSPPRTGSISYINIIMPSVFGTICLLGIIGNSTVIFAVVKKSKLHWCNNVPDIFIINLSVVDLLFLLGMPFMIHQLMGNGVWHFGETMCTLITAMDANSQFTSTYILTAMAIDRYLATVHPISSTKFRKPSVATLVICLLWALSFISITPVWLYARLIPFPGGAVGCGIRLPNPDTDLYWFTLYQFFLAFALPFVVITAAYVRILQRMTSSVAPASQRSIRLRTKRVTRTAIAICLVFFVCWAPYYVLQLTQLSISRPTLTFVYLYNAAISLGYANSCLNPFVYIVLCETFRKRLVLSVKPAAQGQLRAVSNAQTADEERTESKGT
row,SMILES,Ki
1,"Cl.O=c1cc(OCc2ccccc2)ccn1-c1ccc2c3c([nH]c2c1)CCNCC3 [Example 7, 4-(Benzyloxy)-1-(1,2,3,4,5,6-hexahydroazepino[4,5-b]indol-8-yl)pyridin-2(1H)-one hydrochloride]",6 nM
2,"Cn1c2c(c3ccc(-n4ccc(-c5ccc(C(F)(F)F)cn5)cc4=O)nc31)CNCCC2 [Example 92, 1-(10-methyl-5,6,7,8,9,10-hexahydropyrido[3′,2′:4,5]pyrrolo[3,2-c]azepin-2-yl)-4-(5-(trifluoromethyl)pyridine-2-yl)pyridin-2(1H)-one hydrochloride]",20 nM
3,"Cn1c2c(c3ccc(-n4ccc(OCc5ccc(Cl)cc5Cl)cc4=O)nc31)CNCCC2 [Example 93, 4-(2,4-Dichlorobenzyloxy)-1-(10-methyl-5,6,7,8,9,10-hexahydropyrido[3′,2′:4,5]pyrrolo[3,2-c]azepin-2-yl)pyridin-2(1H)-one hydrochloride]",26 nM
4,"Cn1c2c(c3ccc(-n4ccc(OCc5ccc(F)cc5F)cc4=O)nc31)CNCCC2 [Example 94, 4-(2,4-Difluorobenzyloxy)-1-(10-methyl-5,6,7,8,9,10-hexahydropyrido[3′,2′:4,5]pyrrolo[3,2-c]azepin-2-yl)pyridin-2(1H)-one hydrochloride]",11 nM
5,"Cn1c2c(c3ccc(-n4ccc(-c5ccc(C(F)(F)F)cc5)cc4=O)nc31)CNCCC2 [Example 95, 1-(10-methyl-5,6,7,8,9,10-hexahydropyrido[3′,2′:4,5]pyrrolo[3,2-c]azepin-2-yl)-4-(4-(trifluoromethyl)phenyl)pyridin-2(1H)-one hydrochloride]",7.8 nM
6,"Cn1c2c(c3ccc(-n4ccc(OCc5ccc(Cl)cc5F)cc4=O)nc31)CNCCC2 [Example 96, 4-(4-Chloro-2-fluorobenzyloxy)-1-(10-methyl-5,6,7,8,9,10-hexahydropyrido[3′,2′:4,5]pyrrolo[3,2-c]azepin-2-yl)pyridin-2(1H)-one hydrochloride]",9.2 nM
7,"Cn1c2c(c3ccc(N4CCN(CCc5ccc(F)cc5)CC4=O)cc31)CCNCC2 [Example 97, 4-(4-Fluorophenethyl)-1-(6-methyl-1,2,3,4,5,6-hexahydroazepino[4,5-b]indol-8-yl)piperazin-2-one dihydrochloride]",13 nM
8,"CN1CCc2c(n(C)c3cc(N4CCN(CCc5ccc(F)cc5)CC4=O)ccc23)CC1 [Example 98, 1-(3,6-Dimethyl-1,2,3,4,5,6-hexahydroazepino[4,5-b]indol-8-yl)-4-(4-fluorophenethyl)piperazin-2-one dihydrochloride]",13 nM
9,"CCN1CCc2c(n(C)c3cc(N4CCN(CCc5ccc(F)cc5)CC4=O)ccc23)CC1 [Example 99, 1-(3-Ethyl-6-methyl-1,2,3,4,5,6-hexahydroazepino[4,5-b]indol-8-yl)-4-(4-fluorophenethyl)piperazin-2-one dihydrochloride]",17 nM
10,"Cn1c2c(c3ccc(-n4ccc(OCc5ccc(Cl)cc5)cc4=O)cc31)CCNCC2 [Example 100, 4-(4-Chlorobenzyloxy)-1-(6-methyl-1,2,3,4,5,6-hexahydroazepino[4,5-b]indol-8-yl)pyridin-2(1H)-one hydrochloride]",10 nM
11,"Cn1c2c(c3ccc(-n4ccc(CCc5ccccc5)nc4=O)cc31)CCNCC2 [Example 101, 1-(6-Methyl-1,2,3,4,5,6-hexahydroazepino[4,5-b]indol-8-yl)-4-phenethylpyrimidin-2(1H)-one hydrochloride]",9.9 nM
12,"Cn1c2c(c3ccc(-n4ccc(OCc5ccc(F)cc5)cc4=O)cc31)CNCCC2 [Example 103, 4-(4-Fluorobenzyloxy)-1-(6-methyl-1,2,3,4,5,6-hexahydroazepino[4,3-b]indol-8-yl)pyridin-2(1H)-one hydrochloride]",6 nM
13,"Cn1c2c(c3ccc(-n4ccc(OCc5ccc(F)cn5)cc4=O)cc31)C(=O)NCCC2 [Example 104, 8-(4-((5-Fluoropyridin-2-yl)methoxy)-2-oxopyridin-1(2H)-yl)-6-methyl-2,3,4,5-tetrahydroazepino[4,3-b]indol-1(6H)-one]",149 nM
14,"Cn1c2c(c3ccc(-n4ccc(OCc5ccc(Cl)cc5)cc4=O)cc31)CNCCC2 [Example 105, 4-(4-Chlorobenzyloxy)-1-(6-methyl-1,2,3,4,5,6-hexahydroazepino[4,3-b]indol-8-yl)pyridin-2(1H)-one hydrochloride]",7.6 nM
15,"Cn1c2c(c3ccc(-n4ccc(CCc5ccccc5)nc4=O)cc31)CNCCC2 [Example 107, 1-(6-Methyl-1,2,3,4,5,6-hexahydroazepino[4,3-b]indol-8-yl)-4-phenethylpyrimidin-2(1H)-one hydrochloride]",9.7 nM
16,"Cn1c2c(c3ccc(-n4ccc(-c5ccc(C(F)(F)F)nc5)nc4=O)cc31)CNCCC2 [Example 108, 1-(6-Methyl-1,2,3,4,5,6-hexahydroazepino[4,3-b]indol-8-yl)-4-(6-(trifluoromethyl)pyridin-3-yl)pyrimidin-2(1H)-one hydrochloride]",60 nM
17,"Cn1c2c(c3ccc(-n4ccc(OCc5ccc(Cl)cc5)cc4=O)nc31)CCNCC2 [Example 109, 4-(4-Chlorobenzyloxy)-1-(10-methyl-5,6,7,8,9,10-hexahydropyrido[3′,2′:4,5]pyrrolo[2,3-d]azepin-2-yl)pyridin-2(1H)-one hydrochloride]",9.6 nM
18,"Cn1c2c(c3ccc(-n4ccc(OCc5ccc(F)cc5)cc4=O)nc31)CCNCC2 [Example 110, 4-(4-Fluorobenzyloxy)-1-(10-methyl-5,6,7,8,9,10-hexahydropyrido[3′,2′:4,5]pyrrolo[2,3-d]azepin-2-yl)pyridin-2(1H)-one hydrochloride]",12 nM
19,"Cn1c2c(c3ccc(-n4ccc(OCc5ncc(F)cc5F)cc4=O)nc31)CCNCC2 [Example 111, 4-((3,5-Difluoropyridin-2-yl)methoxy)-1-(10-methyl-5,6,7,8,9,10-hexahydropyrido[3′,2′:4,5]pyrrolo[2,3-d]azepin-2-yl)pyridin-2(1H)-one hydrochloride]",71 nM
20,"Cn1c2c(c3ccc(-n4ccc(OCc5ccc(F)cc5)cc4=O)nc31)CNCCC2 [Example 112, 4-(4-Fluorobenzyloxy)-1-(10-methyl-5,6,7,8,9,10-hexahydropyrido[3′,2′:4,5]pyrrolo[3,2-c]azepin-2-yl)pyridin-2(1H)-one hydrochloride]",8.9 nM
21,"Cn1c2c(c3ccc(-n4ccc(OCc5ccc(Cl)cc5)cc4=O)nc31)CNCCC2 [Example 113, 4-(4-Chlorobenzyloxy)-1-(10-methyl-5,6,7,8,9,10-hexahydropyrido[3′,2′:4,5]pyrrolo[3,2-c]azepin-2-yl)pyridin-2(1H)-one hydrochloride]",5.9 nM
22,"Cn1c2c(c3ccc(-n4ccc(OCc5ncc(F)cc5F)cc4=O)nc31)CNCCC2 [Example 114, 4-((3,5-Difluoropyridin-2-yl)methoxy)-1-(10-methyl-5,6,7,8,9,10-hexahydropyrido[3′,2′:4,5]pyrrolo[3,2-c]azepin-2-yl)pyridin-2(1H)-one hydrochloride]",44 nM

# Test system: not given
# Test: not given
# Settings: not given
row,SMILES,melting point
1,"Cn1c2c(c3ccc(-n4ccc(-c5ccc(C(F)(F)F)cn5)cc4=O)cc31)CCNCC2 (as salt: hydrochloride) [Example 3, 1-(6-Methyl-1,2,3,4,5,6-hexahydroazepino[4,5-b]indol-8-yl)-4-(5-(trifluoromethyl)pyridin-2-yl)pyridin-2(1H)-one dihydrochloride]",310 to 312 °C
2,"Cn1c2c(c3ccc(-n4ccc(OCc5ccc(C(F)(F)F)nc5)cc4=O)cc31)CCNCC2 (as salt: hydrochloride) [Example 5, 1-(6-Methyl-1,2,3,4,5,6-hexahydroazepino[4,5-b]indol-8-yl)-4-((6-(trifluoromethyl)pyridin-3-yl)methoxy)pyridin-2(1H)-one dihydrochloride]",296 to 300 °C
3,"O=c1cc(-c2ccc(C(F)(F)F)cn2)ccn1-c1ccc2c3c([nH]c2c1)CCNCC3 (as salt: hydrochloride) [Example 9, 1-(1,2,3,4,5,6-Hexahydroazepino[4,5-b]indol-8-yl)-4-(5-(trifluoromethyl)pyridin-2-yl)pyridin-2(1H)-one dihydrochloride]",288 to 290 °C
4,"Cn1c2c(c3ccc(-n4ncc(OCc5ccc(F)cn5)cc4=O)cc31)CCNCC2 (as salt: hydrochloride) [Example 10, 5-((5-Fluoropyridin-2-yl)methoxy)-2-(6-methyl-1,2,3,4,5,6-hexahydroazepino[4,5-b]indol-8-yl)pyridazin-3(2H)-one dihydrochloride]",250 to 254 °C
5,"Cl.O=c1cc(OCc2ccccc2)ccn1-c1ccc2c3c([nH]c2c1)CCNCC3 [Example 7, 4-(Benzyloxy)-1-(1,2,3,4,5,6-hexahydroazepino[4,5-b]indol-8-yl)pyridin-2(1H)-one hydrochloride]",258 to 260 °C
6,Cl.Cn1c2c(c3ccc(-n4ccc(-c5ccc(C(F)(F)F)cn5)cc4=O)cc31)CCCNC2 [Example 20],288 to 296 °C (dec.)
7,Cl.Cn1c2c(c3ccc(-n4ccc(-c5ccc(C(F)(F)F)cc5)cc4=O)cc31)CNCCC2 [Example 26],264 to 270 °C (dec.)
8,Cl.Cn1c2c(c3ccc(-n4ccc(OCc5ccc(F)cn5)cc4=O)cc31)CCNCC2 [Example 40],194 to 202 °C (dec.)
9,Cl.Cn1c2c(c3ccc(-n4ccc(-c5ccc(C(F)(F)F)cc5)cc4=O)cc31)CCNCC2 [Example 41],306 to 310 °C (dec.)
